Bounds are passed on as bounds.

For the first test, the target named is T1, Syk kinase (Homo sapiens, UniProt P43405).
T1 construct: purchased
Nature of the test: Syk kinase inhibition, Caliper LabChip off-chip mobility-shift kinase assay. Particulars: Caliper LabChip assay; read-out: Syk Enzyme IC50. It is filed as biochemical. In a few lines: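 Purified Syk pre-incubated 15 min with compound in 100 mM HEPES pH 7.5, 1 mM DTT, 10 mM MgCl2 or MnCl2, 0.002% Brij-35, then 1.5 μM fluorescein peptide and ATP at apparent KM added; 1–1.5 h at room temperature, 4% DMSO, EDTA stop. Microfluidic mobility-shift product/substrate conversion gave % inhibition; IC50 from 12-point series (10–0.00003 μM) by 4-parameter fit.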
For the compound `CC(C)(O)Cn1ccc2cc(Nc3cc(C(C)(C)O)ncn3)nc(NC3(C)CCC3)c2c1=O` [compound 733], the IC50 was determined as 92 nM.

With `CCn1ccc2cc(Nc3cnccn3)nc(N[C@H]3CC[C@@H](CO)C3)c2c1=O` [compound 793], the 50% inhibitory concentration (IC50) was found to be 18 nM.

As for `O=c1c2c(N[C@H]3CC[C@@H](O)CC3)nc(Nc3cnccn3)cc2ccn1CCCO` [compound 948], the half-maximal inhibitory concentration (IC50) is 18 nM.

`CC1(Nc2nc(-c3cnc(N)nc3)cc3ccn(CC4CCOCC4)c(=O)c23)CCC1` [compound 930]: the IC50 came out at 81 nM.

As for `[2H]C([2H])([2H])n1ccc2cc(Nc3cc(C)ccn3)nc(N[C@H]3CC[C@H](O)CC3)c2c1=O` [compound 983], the IC50 came out at 51 nM.

Consider `Cn1cc2cc(Nc3nc(Nc4c[n+]([O-])ccn4)cc4ccn(CCO)c(=O)c34)ccc2n1` [compound 658], for which the IC50 is 99 nM.

As for `CC1(Nc2nc(Nc3cc(C(C)(C)O)ccn3)cc3ccn(CC(N)=O)c(=O)c23)CC1` [compound 724], the IC50 was 203 nM.

With `CCn1ccc2cc(-c3cnc(N)nc3)nc(N[C@H]3CC[C@@H](CO)C3)c2c1=O` [compound 913], the IC50 was determined as 5 nM.

Regarding `CC(C)(C)Nc1nc(-c2cnc(N)nc2)cc2ccn(CCCCO)c(=O)c12` [compound 920], the IC50 stood at 18 nM.

For `CC(C(N)=O)n1ccc2cc(Nc3cnccn3)nc(NC(C)(C)C)c2c1=O` (stereo not shown) [compound 660], the IC50 was determined as 13 nM.

`[2H]C([2H])([2H])n1ccc2cc(Nc3cc(C)c(Cl)cn3)nc(NC(C)(C)CO)c2c1=O` [compound 777]: the IC50 was found to be 137 nM.

For `[2H]C([2H])([2H])n1ccc2cc(Nc3cc(Cl)ccn3)nc(NC(C)(C)CO)c2c1=O` [compound 786], the IC50 was found to be 71 nM.

Consider `Cn1cc2cc(Nc3nc(Nc4cnccn4)cc4ccn(CCO)c(=O)c34)ccc2n1` [compound 659], for which the IC50 stood at 103 nM.

Consider `CC(C)(C)Nc1nc(Nc2cnccn2)cc2ccn(CC(F)F)c(=O)c12` [compound 1023], for which the IC50 was 179 nM.

For `CCn1ccc2cc(Nc3cnccn3)nc(N[C@H]3CC[C@H](CO)C3)c2c1=O` [compound 827], the IC50 came to 12 nM.

Regarding `CC(C)(C)Nc1nc(Nc2cnccn2)cc2c(Cl)cn(CCO)c(=O)c12` [compound 823], the IC50 turned out to be 682 nM.

For `CCn1ccc2cc(Nc3cnccn3)nc(N[C@H](CO)C(C)C)c2c1=O` [compound 1043], the IC50 is 122 nM.

`CC1(Nc2nc(-c3cnc(N)nc3)cc3ccn(CCO)c(=O)c23)CCC1` [compound 907]: the IC50 is under 0.847 nM.

In the case of `CC(C)n1ccc2cc(Nc3cc(C(C)(C)O)ccn3)nc(N[C@H]3CC[C@@H](O)CC3)c2c1=O` [compound 706], the IC50 is 55 nM.

For the compound `O=c1c2c(NCC(F)(F)F)nc(Nc3cnccn3)cc2ccn1CCO` [compound 825], the IC50 stood at 22 nM.

In the case of `CC(C)(C)Nc1nc(Nc2cnccn2)cc2ccn(C(C)(C)C(N)=O)c(=O)c12` [compound 672], the IC50 stood at 34 nM.

Turning to `Cc1cc(-c2ccnc(Nc3cc4ccn(CCO)c(=O)c4c(NC(C)(C)C)n3)c2)ccn1` [compound 854], the IC50 is 64 nM.

Consider `CCn1ccc2cc(Nc3cnccn3)nc(NCCC(F)(F)F)c2c1=O` [compound 781], for which the IC50 was determined as 299 nM.

`CCn1ccc2cc(Nc3nccc(O)n3)nc(NC[C@@H]3CC[C@@H](O)C3)c2c1=O` [compound 959]: the IC50 was found to be 41 nM.

With `CC(C)(C)Nc1nc(Nc2cc(N3CCC(O)CC3)ccn2)cc2ccn(CCO)c(=O)c12` [compound 846], the IC50 came to 216 nM.

As for `CC1(Nc2nc(Nc3cc(C4(O)COC4)ccn3)cc3ccn(CC(N)=O)c(=O)c23)CC1` [compound 617], the IC50 stood at 64 nM.

With `CCn1ccc2cc(Nc3cc(C)ccn3)nc(N)c2c1=O` [compound 801], the IC50 was 1900 nM.

In the case of `CCn1ccc2cc(-c3cnc(N)nc3)nc(N[C@@H]3CCC(F)C3)c2c1=O` (stereo partly shown) [compound 749], the IC50 worked out at 45 nM.

In the case of `CC1(Cn2ccc3cc(-c4cnc(N)nc4)nc(NC4CC(F)(F)C4)c3c2=O)COC1` [compound 758], the IC50 was determined as 90 nM.

As for `CCn1ccc2cc(-c3cnc(N)nc3)nc(NC(C)(C)CO)c2c1=O` [compound 904], the IC50 was 4 nM.

As for `C[C@@H](O)c1ccnc(Nc2cc3ccn(CCO)c(=O)c3c(NC(C)(C)C)n2)c1` [compound 713], the half-maximal inhibitory concentration (IC50) was 3 nM.

On to `CC(C)(C)Nc1nc(Nc2cc(N3CCC(O)CC3)ncn2)cc2ccn(CCO)c(=O)c12` [compound 634], for which the IC50 came to 161 nM.

The test is the same for the next values; noted with them: read-out: Syk Enzyme IC50.
With `Cc1cc(-c2cc3cc[nH]c(=O)c3c(Nc3ccc(C4CCN(C5CC5)CC4)c(C)c3)n2)ccn1` [compound 212], the IC50 was 390 nM.

With `Cc1cc(Nc2cc3ccn(CCO)c(=O)c3c(NC(C)(C)CO)n2)ncc1Cl` [compound 497], the IC50 turned out to be 111 nM.

For the compound `C[C@@H]1CN(c2ccc(Nc3nc(CCC(=O)O)cc4cc[nH]c(=O)c34)cn2)CCO1` [compound 243], the half-maximal inhibitory concentration (IC50) was 307 nM.

Turning to `CCC(C)(C)Nc1nc(-c2cnc(N)nc2)cc2cc[nH]c(=O)c12` [compound 454], the IC50 amounted to 281 nM.

As to `Cc1ccnc(Nc2cc3ccn(CCO)c(=O)c3c(Nc3ccc(S(C)(=O)=O)cc3)n2)c1` [compound 404], the IC50 worked out at 63.4 nM.

In the case of `CCn1ccc2cc(Nc3cc(C)ccn3)nc(NC[C@@H]3CC[C@](C)(O)C3)c2c1=O` [compound 414], the half-inhibitory concentration (IC50) was 287 nM.

For `CN(C)[C@H]1CC[C@H](c2ccc(Nc3nc(-c4cncnc4)cc4cc[nH]c(=O)c34)cc2)CC1` [compound 92], the IC50 was found to be 45 nM.

For `C[C@@H](CO)Nc1nc(Nc2cnccn2)cc2ccn(CCO)c(=O)c12` [compound 373], the IC50 came out at 27 nM.

For `Cc1cc(Nc2nc(-c3cnc(N)c(C)c3)cc3cc[nH]c(=O)c23)ccc1C1CCN(CCC#N)CC1` [compound 69], the IC50 came out at 28 nM.

Regarding `Cc1ccnc(Nc2cc3ccn(C)c(=O)c3c(N[C@H]3CCOC3)n2)c1` [compound 325], the IC50 was 57 nM.

`CCn1ccc2cc(Nc3cc(C)ccn3)nc(N[C@H]3CCOC3)c2c1=O` [compound 361]: the IC50 stood at 30 nM.

Take `Cc1ccnc(Nc2cc3cc[nH]c(=O)c3c(N3CCOCC3)n2)c1` [compound 272]: the IC50 is 278 nM.

For `COCCCN1CCC(c2ccc(Nc3nc(-c4cnc(OC)nc4)cc4cc[nH]c(=O)c34)cc2F)CC1` [compound 196], the IC50 is 59 nM.

For `Nc1ncc(-c2cc3cc[nH]c(=O)c3c(NCCc3cccnc3)n2)cn1` [compound 188], the IC50 was found to be 93 nM.

On to `Cc1ccnc(Nc2cc3cc[nH]c(=O)c3c(NC(C)C(C)C)n2)c1` (stereo not shown) [compound 268], for which the IC50 stood at 343 nM.

In the case of `COCCN1CCN(c2n[nH]c3cc(Nc4nc(-c5cncnc5)cc5cc[nH]c(=O)c45)ccc23)CC1` [compound 214], the IC50 was 17 nM.

Consider `Cc1cc(Nc2nc(C(C)C)cc3cc[nH]c(=O)c23)ccc1C1CCN(C2CC2)CC1` [compound 231], for which the IC50 came out at 864 nM.

`Cc1cc(Nc2nc(CCO)cc3cc[nH]c(=O)c23)ccc1C1CCN(C2CC2)CC1` [compound 246]: the IC50 was determined as 41 nM.

In the case of `Cc1ccnc(Nc2cc3cc[nH]c(=O)c3c(N[C@@H](C)CO)n2)c1` [compound 294], the IC50 came out at 101 nM.

As to `Cc1ccnc(Nc2cc3ccn(C)c(=O)c3c(NCC(F)(F)F)n2)c1` [compound 493], the IC50 was 214 nM.

Regarding `COc1cncc(-c2cc3cc[nH]c(=O)c3c(Nc3ccc(C4CCN(C(=O)C(O)C(C)C)CC4)c(C)c3)n2)n1` (stereo not shown) [compound 6], the half-maximal inhibitory concentration (IC50) was 398 nM.

Consider `[2H]C([2H])([2H])n1ccc2cc(Nc3cc(Cl)ccn3)nc(NC(C)(C)C)c2c1=O` [compound 542], for which the IC50 is 830 nM.

For `Cc1ccc(-c2cc3cc[nH]c(=O)c3c(Nc3ccc(C4CCN(CCCF)CC4)c(C)c3)n2)cn1` [compound 46], the IC50 turned out to be 37 nM.

For the compound `O=c1[nH]ccc2cc(Nc3cc(CO)ccn3)nc(NC3CC3)c12` [compound 518], the IC50 was found to be 59 nM.

Take `CCOCCOc1ccc(Nc2nc(Nc3cc(C)ccn3)cc3ccn(C)c(=O)c23)cc1` [compound 334]: the half-maximal inhibitory concentration (IC50) is 1720 nM.

For the compound `COCC(C)Nc1nc(Nc2cc(C)ccn2)cc2cc[nH]c(=O)c12` (stereo not shown) [compound 266], the IC50 was 74 nM.

With `Cc1ccnc(Nc2cc3cc[nH]c(=O)c3c(N[C@H](C)CO)n2)c1` [compound 295], the IC50 is 20 nM.

Take `Cc1ccnc(Nc2cc3cc[nH]c(=O)c3c(N3CCCC3)n2)c1` [compound 269]: the IC50 turned out to be 554 nM.

Regarding `COc1cncc(-c2cc3cc[nH]c(=O)c3c(Nc3ccc(C4CCN(CCC(=O)N(C)C)CC4)c(C)c3)n2)n1` [compound 159], the IC50 was determined as 38 nM.

Turning to `COc1cncc(-c2cc3cc[nH]c(=O)c3c(Nc3ccc(C4CCN(CC(=O)N(C)OC)CC4)c(C)c3)n2)n1` [compound 176], the half-inhibitory concentration (IC50) came out at 41 nM.

Turning to `COc1nc(-c2cc3cc[nH]c(=O)c3c(Nc3ccc(C4CCN(CCC#N)CC4)cc3)n2)cnc1N` [compound 154], the IC50 was 20 nM.

As for `COc1cncc(-c2cc3cc[nH]c(=O)c3c(Nc3ccc(C4CN(C(C)=O)C4)cc3)n2)n1` [compound 149], the half-maximal inhibitory concentration (IC50) turned out to be 24 nM.

Take `CCn1ccc2cc(Nc3cnc(C)cn3)nc(N[C@H]3CC[C@@H](O)CC3)c2c1=O` [compound 392]: the IC50 came to 193 nM.

Consider `Cn1ccc2cc(Nc3ccccn3)nc(N)c2c1=O` [compound 572], for which the IC50 is 3270 nM.

Take `O=c1[nH]ccc2cc(C3=CCNCC3)nc(Nc3ccc(N4CCOCC4)cc3)c12` [compound 88]: the IC50 was 51 nM.

For the compound `CCN1CCN(c2n[nH]c3cc(Nc4nc(-c5cncc(OC)n5)cc5cc[nH]c(=O)c45)ccc23)CC1` [compound 209], the IC50 came to 11 nM.

Take `CCN1CCN(CCc2ccc(Nc3nc(Nc4ccc(C(F)(F)F)cn4)cc4cc[nH]c(=O)c34)cc2)CC1` [compound 556]: the IC50 came to 631 nM.

In the case of `O=c1[nH]ccc2cc(-c3cncnc3)nc(Nc3ccc([C@H]4CC[C@H](N5CCOCC5)CC4)cc3)c12` [compound 111], the IC50 was found to be 190 nM.

What is called IC50 is the concentration at which inhibition is half-maximal.

The values above are taken from patent US20110053897A1 (IRM LLC, priority 2009, published 2011).
